Among the data in patent publication US9120770B2, “Substituted pyridine and pyrazine compounds as PDE4 inhibitors” (DART NEUROSCIENCE (CAYMAN) LTD., priority 2013, dated 2015) are EC50 values, retold here.

Bounds are passed on as bounds.

The assay deals with PDE4D3 (Homo sapiens, UniProt Q08499).
PDE4D3, sequence (Q08499 1-673 isoform Q08499-2): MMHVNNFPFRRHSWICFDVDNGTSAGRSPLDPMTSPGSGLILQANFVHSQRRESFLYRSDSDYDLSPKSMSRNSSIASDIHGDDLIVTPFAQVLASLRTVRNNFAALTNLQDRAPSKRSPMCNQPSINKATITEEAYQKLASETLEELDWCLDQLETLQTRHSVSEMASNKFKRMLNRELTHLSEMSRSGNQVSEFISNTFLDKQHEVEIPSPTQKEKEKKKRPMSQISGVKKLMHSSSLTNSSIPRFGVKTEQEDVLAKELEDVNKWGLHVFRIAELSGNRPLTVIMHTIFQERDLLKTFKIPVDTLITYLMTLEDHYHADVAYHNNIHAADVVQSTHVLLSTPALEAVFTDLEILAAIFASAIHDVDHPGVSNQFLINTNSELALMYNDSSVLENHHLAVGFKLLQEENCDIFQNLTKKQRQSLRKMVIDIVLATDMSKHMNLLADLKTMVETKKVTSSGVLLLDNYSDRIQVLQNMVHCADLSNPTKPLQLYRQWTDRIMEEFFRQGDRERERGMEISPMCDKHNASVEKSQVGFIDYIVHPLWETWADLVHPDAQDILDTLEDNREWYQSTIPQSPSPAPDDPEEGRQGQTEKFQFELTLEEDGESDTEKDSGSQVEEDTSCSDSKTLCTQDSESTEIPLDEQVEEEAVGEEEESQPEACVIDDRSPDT
The EC50 is the midpoint of the concentration-response curve. Read a low EC50 as a more potent agent. The compound `COc1ncc(Cc2cnc(C)nc2)cc1-c1cccc(Cl)c1` [Example 75, 5-{[5-(3-Chlorophenyl)-6-methoxypyridin-3-yl]methyl}-2-methylpyrimidine] had an EC50 of 0.1 to 1 µM.

Compound `COc1ncc(Cc2cnc(OC)c(-c3cccc(Cl)c3)c2)cn1` [Example 76, 5-{[5-(3-Chlorophenyl)-6-methoxypyridin-3-yl]methyl}-2-methoxypyrimidine] showed an EC50 of under 0.1 µM.

Consider `COc1ncc(Cc2cnc(NC(C)C)nc2)cc1-c1cccc(Cl)c1` [Example 77, 5-{[5-(3-Chlorophenyl)-6-methoxypyridin-3-yl]methyl}-N-(propan-2-yl)pyrimidin-2-amine], for which the EC50 fell in the range of 1 to 10 µM.

The compound `COc1ncc(Cc2cncnc2)cc1-c1cccc(Cl)c1` [Example 78, 5-{[5-(3-Chlorophenyl)-6-methoxypyridin-3-yl]methyl}pyrimidine] displayed an EC50 of under 0.1 µM.

With `COc1ncc(Cc2cnn(C)c2)cc1-c1cccc(Cl)c1` [Example 79, 3-(3-Chlorophenyl)-2-methoxy-5-[(1-methyl-1H-pyrazol-4-yl)methyl]pyridine], the 50% effective concentration (EC50) was under 0.1 µM.

In turn, `COc1ncc(Cc2cn[nH]c2)cc1-c1cccc(Cl)c1` [Example 80, 3-(3-Chlorophenyl)-2-methoxy-5-(1H-pyrazol-4-ylmethyl)pyridine] returned an EC50 of under 0.1 µM.

Compound `CNc1ncc(Cc2cnc(OC)c(-c3cccc(Cl)c3)c2)cn1` [Example 81, 5-{[5-(3-Chlorophenyl)-6-methoxypyridin-3-yl]methyl}-N-methylpyrimidin-2-amine] showed an EC50 of 0.1 to 1 µM.

Regarding `COc1ncc(Cc2cnc(NC3CC3)nc2)cc1-c1cccc(Cl)c1` [Example 82, 5-{[5-(3-Chlorophenyl)-6-methoxypyridin-3-yl]methyl}-N-cyclopropylpyrimidin-2-amine], the EC50 was under 0.1 µM.

`COc1ncc(Cc2cnc(N(C)C)nc2)cc1-c1cccc(Cl)c1` [Example 83, 5-{[5-(3-Chlorophenyl)-6-methoxypyridin-3-yl]methyl}-N,N-dimethylpyrimidin-2-amine] came in with an EC50 of 0.1 to 1 µM.

Take `COc1ncc(Cc2cnc(NCC(F)(F)F)nc2)cc1-c1cccc(Cl)c1` [Example 84, 5-{[5-(3-Chlorophenyl)-6-methoxypyridin-3-yl]methyl}-N-(2,2,2-trifluoroethyl)pyrimidin-2-amine]: the EC50 is under 0.1 µM.

The compound `COC(=O)c1ccc(Cc2cnc(OC)c(-c3cccc(Cl)c3)n2)cc1` [Example 85, Methyl 4-{[6-(3-chlorophenyl)-5-methoxypyrazin-2-yl]methyl}benzoate] registered an EC50 of 0.1 to 1 µM.

In turn, `COc1ncc(Cc2ccc(C#N)cc2)nc1-c1cccc(Cl)c1` [Example 86, 4-{[6-(3-Chlorophenyl)-5-methoxypyrazin-2-yl]methyl}benzonitrile] registered an EC50 of 0.1 to 1 µM.

In turn, `COc1ncc(Cc2cnc(N)nc2)nc1-c1cccc(Cl)c1` [Example 87, 5-{[6-(3-Chlorophenyl)-5-methoxypyrazin-2-yl]methyl}pyrimidin-2-amine] returned an EC50 of under 0.1 µM.

Turning to `COc1ncc(Cc2ccc(F)cc2)cc1-c1cccc(Cl)c1` [Example 88, 3-(3-Chlorophenyl)-5-[(4-fluorophenyl)methyl]-2-methoxypyridine], the EC50 lay in the range of 0.1 to 1 µM.

`Nc1ncc(Cc2cnc(OC(F)F)c(-c3cccc(Cl)c3)c2)cn1` [Example 89, 5-{[5-(3-Chlorophenyl)-6-(difluoromethoxy)pyridin-3-yl]methyl}pyrimidin-2-amine] showed an EC50 of under 0.1 µM.

`COc1ncc(Cc2ccc(C(N)=O)nc2)nc1-c1cccc(Cl)c1` [Example 90, 5-{[6-(3-Chlorophenyl)-5-methoxypyrazin-2-yl]methyl}pyridine-2-carboxamide] yielded an EC50 of 0.1 to 1 µM.

As to `FC(F)Oc1ncc(Cc2cnc(NC3CC3)nc2)cc1-c1cccc(Cl)c1` [Example 91, 5-{[5-(3-Chlorophenyl)-6-(difluoromethoxy)pyridin-3-yl]methyl}-N-cyclopropylpyrimidin-2-amine], the EC50 fell in the range of 0.1 to 1 µM.

Compound `COc1ncc(Cc2cnc(OC(F)F)c(-c3cccc(Cl)c3)c2)cn1` [Example 92, 5-{[5-(3-Chlorophenyl)-6-(difluoromethoxy)pyridin-3-yl]methyl}-2-methoxypyrimidine] had an EC50 of under 0.1 µM.

`CNc1ncc(Cc2cnc(OC(F)F)c(-c3cccc(Cl)c3)c2)cn1` [Example 93, 5-{[5-(3-Chlorophenyl)-6-(difluoromethoxy)pyridin-3-yl]methyl}-N-methylpyrimidin-2-amine] displayed an EC50 of under 0.1 µM.

`FC(F)Oc1ncc(Cc2cnc(NCC(F)(F)F)nc2)cc1-c1cccc(Cl)c1` [Example 94, 5-{[5-(3-Chlorophenyl)-6-(difluoromethoxy)pyridin-3-yl]methyl}-N-(2,2,2-trifluoroethyl)pyrimidin-2-amine] registered an EC50 of 0.1 to 1 µM.

Consider `COc1ncc(Cc2cnoc2)nc1-c1cccc(Cl)c1` [Example 95, 3-(3-Chlorophenyl)-2-methoxy-5-(1,2-oxazol-4-ylmethyl)pyrazine], for which the EC50 is under 0.1 µM.

In turn, `COc1ncc(Cc2cnoc2)cc1-c1cccc(Cl)c1` [Example 96, 3-(3-Chlorophenyl)-2-methoxy-5-(1,2-oxazol-4-ylmethyl)pyridine] registered an EC50 of 0.1 to 1 µM.

As to `FC(F)Oc1ncc(Cc2cnoc2)cc1-c1cccc(Cl)c1` [Example 97, 3-(3-Chlorophenyl)-2-(difluoromethoxy)-5-(1,2-oxazol-4-ylmethyl)pyridine], the EC50 was in the range of 0.1 to 1 µM.

For the compound `COc1ncc(Cc2c(C)noc2C)nc1-c1cccc(Cl)c1` [Example 98, 3-(3-Chlorophenyl)-5-[(dimethyl-1,2-oxazol-4-yl)methyl]-2-methoxypyrazine], the EC50 lay in the range of 1 to 10 µM.

`Cc1noc(C)c1Cc1cnc(OC(F)F)c(-c2cccc(Cl)c2)c1` [Example 99, 3-(3-Chlorophenyl)-2-(difluoromethoxy)-5-[(dimethyl-1,2-oxazol-4-yl)methyl]pyridine]: the EC50 was in the range of 1 to 10 µM.

In turn, `COC(=O)Cc1ccc(Cc2cnc(OC(F)F)c(-c3cccc(Cl)c3)c2)cc1` [Example 100, Methyl 2-(4-{[5-(3-chlorophenyl)-6-(difluoromethoxy)pyridin-3-yl]methyl}phenyl)acetate] registered an EC50 of under 0.1 µM.

On to `CCOC(=O)C1(c2ccc(Cc3cnc(OC(F)F)c(-c4cccc(Cl)c4)c3)cc2)CC1` [Example 101, Ethyl 1-(4-{[5-(3-chlorophenyl)-6-(difluoromethoxy)pyridin-3-yl]methyl}phenyl)cyclopropane-1-carboxylate], for which the EC50 fell in the range of 1 to 10 µM.

As for `FC(F)Oc1ncc(Cc2ccc(OCC3CC3)nc2)cc1-c1cccc(Cl)c1` [Example 102, 3-(3-Chlorophenyl)-5-{[6-(cyclopropylmethoxy)pyridin-3-yl]methyl}-2-(difluoromethoxy)pyridine], the EC50 lay in the range of 0.1 to 1 µM.

Compound `CCOc1ncc(Cc2ccc(C#N)nc2)nc1-c1cccc(OC(F)F)c1` [Example 103, 5-({6-[3-(Difluoromethoxy)phenyl]-5-ethoxypyrazin-2-yl}methyl)pyridine-2-carbonitrile] came in with an EC50 of under 0.1 µM.

As to `CCOc1ncc(Cc2cnc(N)nc2)nc1-c1cccc(OC(F)F)c1` [Example 104, 5-({6-[3-(Difluoromethoxy)phenyl]-5-ethoxypyrazin-2-yl}methyl)pyrimidin-2-amine], the EC50 is under 0.1 µM.

For the compound `CCOc1ncc(Cc2cnc(N)nc2)nc1-c1cccc(Cl)c1` [Example 105, 5-{[6-(3-Chlorophenyl)-5-ethoxypyrazin-2-yl]methyl}pyrimidin-2-amine], the EC50 was under 0.1 µM.
